According to US11155879B2, “Method of predicting effects of CDC7 inhibitor” (TAKEDA PHARMACEUTICAL COMPANY LIMITED, priority 2017, dated 2021):

Test system: pancreatic patient-derived tumor xenografts (PDX models)
Assay: In vivo antitumor activity in female BALB/c nude mice bearing patient-derived tumor xenografts (PDXs)
Conditions: 60 mg/kg, Bid, po, 21 days, 3 days on 4 days off
Description: In Vivo Antitumor Activity of Compound 1 Hemihydrate in Female BALB/c Nude Mice Bearing Patient-Derived Tumor Xenografts (PDXs)
Tumor fragments from seed mice inoculated with selected PDX tumors were harvested and used for inoculation into BALB/c nude mice. Each mouse was inoculated subcutaneously at the right flank with one tumor fragment (2-3 mm in diameter). The treatments were started when mean tumor size reached approximately 200-250 mm^3. For each model, 6 tumor bearing mice were randomized into 2 groups. Mice were dosed orally with either vehicle (0.5% w:v methyl cellulose) or Compound 1 hemihydrate Form A crystal (60 mg/kg, Bid, po, 21 days, 3 days on 4 days off).
The % tumor growth inhibition (TGI) was taken as endpoints to determine when the tumor growth can be delayed or mice can be cured. Tumor sizes were measured twice weekly in two dimensions using a caliper, and the volume is expressed in mm^3 using the formula: V=0.5a×b^2,
where a and b are the long and short diameters of the tumor, respectively. The % TGI was calculated using the following formula: % TGI=(1−(Ti-T0)/(Vi-V0))*100 […]

Structure (SMILES): Cc1n[nH]cc1-c1cc2nc([C@@H]3CC4CCN3CC4)[nH]c(=O)c2s1 [Compound 1 hemihydrate, 2-[(2S)-1-azabicyclo[2.2.2]oct-2-yl]-6-(3-methyl-1H-pyrazol-4-yl)thieno[3,2-d]pyrimidin-4(3H)-one]
- tumor growth inhibition (% TGI) (22 out of 25 pancreatic PDX models, vs vehicle (0.5% methyl cellulose)): > 60%
- sensitivity of KRAS-mutant pancreatic tumors compared to KRAS-wild type ones (correlative study on % TGI, FIG. 1) (pancreatic PDX models, Student's t-test KRAS-mutant vs KRAS-wild): more sensitive
